In ChEMBL document CHEMBL1782019, “Pyridones as glucokinase activators: identification of a unique metabolic liability of the 4-sulfonyl-2-pyridone heterocycle” (Bioorg Med Chem Lett, 2009):

Key:
[1] = Half life in human liver microsome at 1 uM by LC/MS/MS analysis; type: ADME; settings: liver microsomes
[2] = Hepatic clearance in rat liver microsome at 1 uM by LC/MS/MS analysis; type: ADME; settings: liver microsomes
[3] = Half life in rat liver microsome at 1 uM by LC/MS/MS analysis; type: ADME; settings: liver microsomes
[4] = Bioavailability in Sprague-Dawley rat at 0.5 mg/kg, iv and 5 mg/kg, po; type: ADME, organism-based; settings: in vivo
[5] = Half life in Sprague-Dawley rat at 0.5 mg/kg, iv and 5 mg/kg, po; type: ADME, organism-based; settings: in vivo
[6] = Clearance in Sprague-Dawley rat at 0.5 mg/kg, iv and 5 mg/kg, po; type: ADME, organism-based; settings: in vivo
[7] = Fraction unbound in Sprague-Dawley rat at 0.5 mg/kg, iv and 5 mg/kg, po; type: ADME, organism-based; settings: plasma
[8] = Hepatic clearance in human liver microsome at 1 uM by LC/MS/MS analysis; type: ADME; settings: liver microsomes
[9] = target: T1, Hexokinase-4 (Homo sapiens, UniProt P35557)
T1 sequence (P35557 whole entry): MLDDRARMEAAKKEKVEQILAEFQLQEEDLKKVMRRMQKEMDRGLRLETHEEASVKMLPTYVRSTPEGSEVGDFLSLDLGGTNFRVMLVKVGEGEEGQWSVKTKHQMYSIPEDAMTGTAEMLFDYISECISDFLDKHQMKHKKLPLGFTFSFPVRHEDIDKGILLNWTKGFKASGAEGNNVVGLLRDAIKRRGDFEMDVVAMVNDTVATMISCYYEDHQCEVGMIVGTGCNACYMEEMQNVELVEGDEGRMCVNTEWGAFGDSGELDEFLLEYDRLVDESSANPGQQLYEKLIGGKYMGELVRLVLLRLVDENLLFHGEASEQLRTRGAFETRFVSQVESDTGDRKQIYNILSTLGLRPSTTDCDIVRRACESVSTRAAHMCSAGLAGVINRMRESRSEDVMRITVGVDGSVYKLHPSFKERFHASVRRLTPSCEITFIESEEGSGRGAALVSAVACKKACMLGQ
Description: Activation of human recombinant glucokinase using 6.5 mM glucose by spectrophotometry

EC50 [9] [nM]	Structure (SMILES)	further results
560	Cc1ccc(NC(=O)[C@H](CC2CCCC2)n2ccc(S(C)(=O)=O)cc2=O)nc1	half-life at 1 µM [1]: > 120 min; CLhep predicted at 1 µM [2]: 58 mL/min/kg; half-life at 1 µM [3]: 9 min; CLhep predicted at 1 µM [8]: 5 mL/min/kg
110	Cc1ccc(NC(=O)[C@H](CC2CCCC2)n2ccc(S(=O)(=O)C3CC3)cc2=O)nc1	
240	Cc1ccc(NC(=O)[C@H](CC2CCCCC2)n2ccc(S(=O)(=O)C(C)C)cc2=O)nc1	
1500	CCS(=O)(=O)c1ccn([C@@H](CC2CCOCC2)C(=O)Nc2ccc(C)cn2)c(=O)c1	half-life at 1 µM [1]: > 120 min; CLhep predicted at 1 µM [2]: < 18 mL/min/kg; half-life at 1 µM [3]: > 120 min; CLhep predicted at 1 µM [8]: < 5 mL/min/kg
600	CC(C)S(=O)(=O)c1ccn([C@@H](CC2CCCC2)C(=O)Nc2ccccn2)c(=O)c1	
1300	O=C(Nc1cnccn1)[C@H](CC1CCCC1)n1ccc(S(=O)(=O)C2CC2)cc1=O	
590	O=C(Nc1cnccn1)[C@H](CC1CCCC1)n1ccc(S(=O)(=O)C2CCC2)cc1=O	
700	Cc1cnc(NC(=O)[C@H](CC2CCCC2)n2cc(Cl)c(S(=O)(=O)C(C)C)cc2=O)cn1	
720	CC(C)S(=O)(=O)c1ccn([C@@H](CC2CCCC2)C(=O)Nc2cc[nH]n2)c(=O)c1	
910	CC(C)S(=O)(=O)c1ccn([C@@H](CC2CCCC2)C(=O)Nc2ccn(C)n2)c(=O)c1	half-life at 1 µM [1]: 93 min; CLhep predicted at 1 µM [2]: 58 mL/min/kg; half-life at 1 µM [3]: 8 min; bioavailability [4]: 8%; half-life [5]: 12 min; clearance [6]: 164 mL/min/kg; fraction unbound [7]: 0.59; CLhep predicted at 1 µM [8]: 10 mL/min/kg
260	Cn1ccc(NC(=O)[C@H](CC2CCCC2)n2ccc(S(=O)(=O)C3CCC3)cc2=O)n1	

Further lines, the compound ahead of its results:

Structure (SMILES)	EC50 [9] [nM]	further results
Cc1cnc(NC(=O)[C@H](CC2CCCC2)n2ccc(S(C)(=O)=O)cc2=O)cn1	3500	half-life at 1 µM [1]: > 120 min; CLhep predicted at 1 µM [2]: 31 mL/min/kg; half-life at 1 µM [3]: 56 min; bioavailability [4]: 2%; half-life [5]: 12 min; clearance [6]: 337 mL/min/kg; fraction unbound [7]: 0.35; CLhep predicted at 1 µM [8]: < 5 mL/min/kg
Cc1ccc(NC(=O)[C@H](CC(C)C)n2ccc(S(=O)(=O)C(C)C)cc2=O)nc1	510	
Cc1csc(NC(=O)c2cc(Sc3nccn3C)c(F)cc2N)n1	620	
CCS(=O)(=O)c1ccn([C@@H](CC2CCCC2)C(=O)Nc2ccc(C)cn2)c(=O)c1	500	
Cc1ccc(NC(=O)[C@H](CC2CCCC2)n2ccc(S(=O)(=O)C(C)C)cc2=O)nc1	230	
Cc1ccc(NC(=O)[C@H](CC2CCCC2)n2ccc(S(=O)(=O)C3CCC3)cc2=O)nc1	60	
Cc1ccc(NC(=O)[C@H](CC2CCCC2)n2cc(Cl)c(S(C)(=O)=O)cc2=O)nc1	480	
Cc1ccc(NC(=O)[C@H](CC2CCCC2)n2cc(C)c(S(C)(=O)=O)cc2=O)nc1	440	
Cc1ccc(NC(=O)[C@H](CC2CCCC2)n2cc(Cl)c(S(=O)(=O)C(C)C)cc2=O)nc1	260	
Cc1ccc(NC(=O)[C@H](CC2CCCC2)n2cc(C)c(S(=O)(=O)C(C)C)cc2=O)nc1	160	
Cc1ccc(NC(=O)[C@H](CC2CCCC2)n2ccc(S(=O)(=O)C(C)C)c(Cl)c2=O)nc1	70	
Cc1ccc(NC(=O)[C@H](CC2CCC2)n2ccc(S(=O)(=O)C(C)C)cc2=O)nc1	670	
Cc1ccc(NC(=O)[C@H](CC2CCC(F)(F)CC2)n2ccc(S(=O)(=O)C(C)C)cc2=O)nc1	160	half-life at 1 µM [1]: 73 min; CLhep predicted at 1 µM [2]: 36 mL/min/kg; half-life at 1 µM [3]: 42 min; CLhep predicted at 1 µM [8]: 8 mL/min/kg
Cc1ccc(NC(=O)[C@H](Cc2ccccc2)n2ccc(S(=O)(=O)C(C)C)cc2=O)nc1	3300	
CC(C)S(=O)(=O)c1ccn([C@@H](CC2CCCC2)C(=O)Nc2ccc(C(F)(F)F)cn2)c(=O)c1	330	
CS(=O)(=O)c1cc(=O)n([C@@H](CC2CCCC2)C(=O)Nc2ccc(Cl)cn2)cc1Cl	140	
Cn1ccc(NC(=O)[C@H](CC2CCCC2)n2ccc(S(=O)(=O)C3CC3)cc2=O)n1	1500	
CC(C)S(=O)(=O)c1ccn([C@@H](CC2CCCC2)C(=O)Nc2nccs2)c(=O)c1	1300	
